The record followed here is ChEMBL document CHEMBL1201862, “PubChem BioAssay data set” (2004).

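Protocol summary: plate cells (96-well), add compound at 5 concentrations, incubate 48 h, interpolate endpoints linearly. GI50 = concentration required for 50% inhibition of growth.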 The source made the active and inactive calls. Cut-off read from the data, not from the text of the source: active = GI50 up to about 1.1 µM and inactive = higher. Where a SMILES comes first, the peptide text is derived from it. [ ]: non-standard residue; d: D form. The star is where a group is joined. ξ: configuration not given here. ξF = NC(Cc1ccccc1)C(=O)O; Cbz = O=C(OCc1ccccc1)*; Aib = CC(C)(N)C(=O)O

Among the test systems are OVCAR-4; K562; PC-3; OVCAR-3; MDA-MB-231; M14; SR; T47D; KM12; NCI-H23; MDA-MB-435; UACC-257; SF-295; A498; Hs-578T; SK-OV-3; RPMI-8226; SF-539; MDA-N; MCF7.
Holding throughout (assay): NCI-60 cell line screen, 48 h

Take `O=[N+]([O-])c1ccc(Nc2nc3ccccc3s2)cc1`: the GI50 with OVCAR-4 is 43.2 µM (inactive); in the assay on K562 it was 12.2 µM (inactive); in the assay on PC-3 it was 16.3 µM (inactive); with OVCAR-3, 18.7 µM (inactive); in the assay with MDA-MB-231 it was 18 µM (inactive); with M14, 26.7 µM (inactive). Further, the GI50 with SR was 10.7 µM (inactive); in the assay with T47D, 3.03 µM (inactive); with KM12 it was 51.6 µM (inactive); with NCI-H23 it was 16 µM (inactive); with MDA-MB-435 it was 37.9 µM (inactive); with UACC-257, 25.8 µM (inactive). Besides, the GI50 in the assay with SF-295 was 37.6 µM (inactive); in the assay with A498 it was 30.4 µM (inactive); in the assay on Hs-578T it was 29.9 µM (inactive).
Take `COc1ccccc1C1C(C(=O)O)=C(CO)Oc2cc3c(cc21)OCO3` (stereo unspecified): the GI50 in the assay on K562, in the assay with OVCAR-3, in the assay with M14, in the assay on NCI-H23, in the assay on SK-OV-3 and in the assay on RPMI-8226 was > 100 µM (inactive) each time. In addition, the GI50 with SF-295, with SF-539 and with A498 was > 100 µM (inactive) in each case.
For the molecule `CN(C)C(=S)SCc1ccccc1`, the GI50 in the assay on OVCAR-3 was > 100 µM (inactive); in the assay with MDA-MB-231, 99.1 µM (inactive); in the assay with M14 it was > 100 µM (inactive); in the assay on T47D, 0.033 µM (active); with KM12, > 100 µM (inactive); with NCI-H23, > 100 µM (inactive). Also, the GI50 is > 100 µM (inactive) with MDA-N; > 100 µM (inactive) with MCF7; > 100 µM (inactive) with SK-OV-3; > 100 µM (inactive) in the assay with MDA-MB-435; 79.8 µM (inactive) in the assay with UACC-257; > 100 µM (inactive) in the assay with SF-295. Also, the GI50 in the assay on SF-539 was > 100 µM (inactive); in the assay on A498, 62.5 µM (inactive); in the assay on Hs-578T it was > 100 µM (inactive).
As to `C[N+](C)(N)c1nc(N)c(C#N)c(C#N)c1C#N`, the GI50 with OVCAR-4 is > 10 µM (inactive); with K562, 7.01 µM (inactive); with PC-3, > 10 µM (inactive); with OVCAR-3, 1.91 µM (inactive); in the assay on MDA-MB-231, > 10 µM (inactive); with M14, > 10 µM (inactive). Also, the GI50 with SR, with T47D, in the assay on NCI-H23, in the assay with MDA-N, in the assay on MCF7 and in the assay with SK-OV-3 was > 10 µM (inactive) throughout. The GI50 with RPMI-8226, in the assay on MDA-MB-435, in the assay with SF-295, with SF-539, in the assay on A498 and in the assay on Hs-578T was > 10 µM (inactive) each time.
On to `CCCOC(=O)CCC(NC(=O)c1ccc(Nc2nc3ccccc3nc2-c2cccs2)cc1)C(=O)OCCC` (stereo unspecified), for which the GI50 was > 100 µM (inactive) in the assay with OVCAR-4; > 100 µM (inactive) in the assay on K562; > 100 µM (inactive) with OVCAR-3; 61.9 µM (inactive) with SR; > 100 µM (inactive) with KM12; > 100 µM (inactive) in the assay on NCI-H23. For the same molecule, the GI50 in the assay with SK-OV-3, in the assay on RPMI-8226, in the assay with SF-295 and with SF-539 was > 100 µM (inactive) in each case.
On to `Cc1cccc2c1Sc1ccccc1C2NC(=O)CN(C)C` (stereo unspecified), for which the GI50 is > 100 µM (inactive) in the assay on OVCAR-4; 81.1 µM (inactive) with K562; 41.4 µM (inactive) in the assay on M14; 54.7 µM (inactive) in the assay with SR; > 100 µM (inactive) with NCI-H23; > 100 µM (inactive) with SK-OV-3. The results for the GI50 in the assay with RPMI-8226, with UACC-257 and with SF-539 were 77.8 µM (inactive), 52.6 µM (inactive) and > 100 µM (inactive), respectively.
Take `Nc1nc(=S)[nH]c2nc3c(c(-c4ccccc4)c12)CCCC3`: the GI50 in the assay with OVCAR-4, in the assay on K562, in the assay with PC-3, in the assay on OVCAR-3, in the assay on MDA-MB-231 and with M14 was > 100 µM (inactive) each time. The GI50 in the assay with SR is > 100 µM (inactive); in the assay on T47D, 60.1 µM (inactive); with KM12, > 100 µM (inactive); in the assay on NCI-H23, > 100 µM (inactive); in the assay on MDA-N it was > 100 µM (inactive); in the assay with MCF7 it was > 100 µM (inactive). Further, the GI50 in the assay on SK-OV-3 is > 100 µM (inactive); in the assay with RPMI-8226, > 100 µM (inactive); in the assay with MDA-MB-435, > 100 µM (inactive); in the assay on UACC-257, > 10 µM (inactive); with SF-295, > 100 µM (inactive); in the assay on SF-539 it was 71.6 µM (inactive). In addition, the GI50 in the assay with Hs-578T is 51.9 µM (inactive).
As to `C=CC(Br)(CBr)CCC(Cl)C(C)C` (stereo unspecified), the GI50 is 1.49 µM (inactive) in the assay on OVCAR-4; 1.33 µM (inactive) in the assay with K562; 3.45 µM (inactive) in the assay on PC-3; 2.02 µM (inactive) in the assay on OVCAR-3; 1.4 µM (inactive) in the assay with MDA-MB-231; 1.7 µM (inactive) in the assay with M14. Moreover, the GI50 is 0.481 µM (active) with SR; 1.47 µM (inactive) in the assay with KM12; 2.74 µM (inactive) in the assay on NCI-H23; 1.45 µM (inactive) in the assay on MDA-N; 1.39 µM (inactive) in the assay on MCF7; 4.25 µM (inactive) with SK-OV-3. The GI50 with RPMI-8226 was 0.35 µM (active); in the assay with MDA-MB-435, 1.82 µM (inactive); with UACC-257 it was 2.25 µM (inactive); with SF-295 it was 1.84 µM (inactive); in the assay with SF-539, 2.31 µM (inactive); with A498, 13.7 µM (inactive). In addition, the GI50 with Hs-578T was 2.58 µM (inactive).
On to `O=Cc1c(Br)[nH]c2ccccc12`, for which the GI50 in the assay with OVCAR-4 is 56.8 µM (inactive); with K562 it was > 100 µM (inactive); in the assay with OVCAR-3 it was > 100 µM (inactive); in the assay with KM12, > 100 µM (inactive); in the assay with NCI-H23, > 100 µM (inactive); with MCF7 it was 47 µM (inactive). The GI50 in the assay with SK-OV-3 is 94.4 µM (inactive); in the assay on RPMI-8226, 19.3 µM (inactive); with UACC-257 it was 26.9 µM (inactive); with SF-295 it was 75.2 µM (inactive); in the assay on SF-539, > 100 µM (inactive); with A498, > 100 µM (inactive).
Consider `COc1ccc(NC2=NCCO2)c2ccccc12`, for which the GI50 in the assay on OVCAR-4, with K562, in the assay on PC-3, in the assay on OVCAR-3, with MDA-MB-231 and in the assay with M14 was > 10 µM (inactive) in each case. Besides, the GI50 in the assay with SR, in the assay with T47D, in the assay with KM12, in the assay with MDA-N, in the assay on MCF7 and with SK-OV-3 was > 10 µM (inactive) each time. The GI50 in the assay on RPMI-8226, in the assay with MDA-MB-435, in the assay with SF-295, in the assay with SF-539, with A498 and in the assay on Hs-578T was > 10 µM (inactive) each time.
Consider `O=C(NCCCNC(=O)c1ccc2cc(O)c(O)cc2c1)c1ccc2cc(O)c(O)cc2c1`, for which the GI50 in the assay with OVCAR-4 is 16.7 µM (inactive); in the assay with K562, 33.7 µM (inactive); in the assay on PC-3, 27.4 µM (inactive); in the assay with M14, 45.7 µM (inactive); in the assay with SR it was 25.3 µM (inactive); in the assay on T47D, 26.7 µM (inactive). Also, the GI50 was 37.9 µM (inactive) in the assay on KM12; 22.5 µM (inactive) in the assay with NCI-H23; 31.7 µM (inactive) in the assay on MDA-N; 30.9 µM (inactive) with MCF7; 29.3 µM (inactive) with RPMI-8226; 32.4 µM (inactive) with MDA-MB-435. Further, the GI50 is 36.4 µM (inactive) in the assay on UACC-257, 16.5 µM (inactive) in the assay with SF-539 and 63.4 µM (inactive) in the assay with A498.
As for `O=c1c2cc(I)ccc2nc(-c2cccs2)n1Nc1ccccc1`, the GI50 in the assay on OVCAR-4 was 3.06 µM (inactive); in the assay with PC-3, 1.61 µM (inactive); in the assay on OVCAR-3 it was 1.16 µM (inactive); in the assay with M14, 1.5 µM (inactive); in the assay on SR, 12.1 µM (inactive); with KM12 it was 4.14 µM (inactive). Also, the GI50 in the assay on NCI-H23 was 19.9 µM (inactive); with SK-OV-3, 13.9 µM (inactive); with RPMI-8226, 4.61 µM (inactive); with MDA-MB-435, 0.649 µM (active); in the assay with SF-295, 0.383 µM (active); in the assay with SF-539, 33.5 µM (inactive).
Take `COC(=O)C(C)(C)NC(=O)C(Cc1ccccc1)NC(=O)C(C)(C)NC(=O)OCc1ccccc1` (stereo unspecified) (Cbz-[Aib]-[ξF]-[Aib]-OMe): the GI50 in the assay on OVCAR-4, in the assay on K562, in the assay with PC-3, in the assay on OVCAR-3, in the assay on MDA-MB-231 and in the assay on M14 was > 100 µM (inactive) throughout. In addition, the GI50 with T47D, in the assay with MDA-N, with MCF7, with SK-OV-3, in the assay on RPMI-8226 and with MDA-MB-435 was > 100 µM (inactive) each time. Also, the values for the GI50 in the assay with UACC-257, in the assay with SF-295 and in the assay with A498 were > 100 µM (inactive), > 100 µM (inactive) and 24.3 µM (inactive), respectively.
